PubChem BioAssay (NCI)
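96-well plates; 48 h exposure; 5 concentrations. Endpoints by linear interpolation between flanking doses. Not reached: highest tested concentration assigned. TGI is the concentration that stops growth completely.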

Experiments:
Assay in all cases: DTP human tumour cell line panel, 48 h
[1] = system: 786-0 renal
[2] = system: A498 renal
[3] = system: A549 NSCLC
[4] = system: ACHN renal
[5] = system: CAKI-1 renal
[6] = system: CCRF-CEM leukemia
[7] = system: COLO 205 colon
[8] = system: DLD-1 colon
[9] = system: DMS 273 small cell lung
[10] = system: EKVX NSCLC
[11] = system: HCC-2998 colon
[12] = system: HCT-116 colon
[13] = system: HCT-15 colon
[14] = system: HL-60(TB) leukemia
[15] = system: HOP-18 NSCLC
[16] = system: HOP-62 NSCLC
[17] = system: HOP-92 NSCLC
[18] = system: HT29 colon
[19] = system: IGROV1 ovarian
[20] = system: K-562 leukemia
[21] = system: KM12 colon
[22] = system: KM20L2 colon
[23] = system: LOX IMVI melanoma
[24] = system: LXFL 529 NSCLC
[25] = system: M14 melanoma
[26] = system: MALME-3M melanoma
[27] = system: MOLT-4 leukemia
[28] = system: NCI-H226 lung
[29] = system: NCI-H23 lung
[30] = system: NCI-H460 lung
[31] = system: NCI-H522 lung
[32] = system: OVCAR-3 ovarian
[33] = system: OVCAR-4 ovarian
[34] = system: OVCAR-5 ovarian
[35] = system: OVCAR-8 ovarian
[36] = system: RPMI-8226 leukemia
[37] = system: RXF 393 renal
[38] = system: SF-268 CNS
[39] = system: SF-295 CNS
[40] = system: SF-539 CNS
[41] = system: SK-MEL-2 melanoma
[42] = system: SK-MEL-28 melanoma
[43] = system: SK-MEL-5 melanoma
[44] = system: SK-OV-3 ovarian
[45] = system: SN12C renal
[46] = system: SNB-19 CNS
[47] = system: SNB-75 CNS
[48] = system: SW-620 colon
[49] = system: TK-10 renal
[50] = system: U251 CNS
[51] = system: UACC-62 melanoma
[52] = system: XF 498 CNS
[53] = system: DMS 114 small cell lung
[54] = system: M19-MEL melanoma
[55] = system: SNB-78 CNS
[56] = system: UACC-257 melanoma
[57] = system: UO-31 renal
[58] = system: SR leukemia

## O=C(O)CCNCCCCNCCC(=O)O
[1]
  TGI: > 100 µM
[2]
  TGI: > 100 µM
[3]
  TGI: > 100 µM
[4]
  TGI: > 100 µM
[5]
  TGI: > 100 µM
[6]
  TGI: > 100 µM
[7]
  TGI: > 100 µM
[8]
  TGI: > 100 µM
[9]
  TGI: > 100 µM
[10]
  TGI: > 100 µM
[11]
  TGI: > 100 µM
[12]
  TGI: > 100 µM
[13]
  TGI: > 100 µM
[14]
  TGI: > 100 µM
[15]
  TGI: > 100 µM
[16]
  TGI: > 100 µM
[17]
  TGI: > 100 µM
[18]
  TGI: > 100 µM
[19]
  TGI: > 100 µM
[20]
  TGI: > 100 µM
[21]
  TGI: > 100 µM
[22]
  TGI: > 100 µM
[23]
  TGI: > 100 µM
[24]
  TGI: > 100 µM
[25]
  TGI: > 100 µM
[26]
  TGI: > 100 µM
[27]
  TGI: > 100 µM
[28]
  TGI: > 100 µM
[29]
  TGI: > 100 µM
[30]
  TGI: > 100 µM
[31]
  TGI: > 100 µM
[32]
  TGI: > 100 µM
[33]
  TGI: > 100 µM
[34]
  TGI: > 100 µM
[35]
  TGI: > 100 µM
[36]
  TGI: > 100 µM
[37]
  TGI: > 100 µM
[38]
  TGI: > 100 µM
[39]
  TGI: > 100 µM
[40]
  TGI: > 100 µM
[41]
  TGI: > 100 µM
[42]
  TGI: > 100 µM
[43]
  TGI: > 100 µM
[44]
  TGI: > 100 µM
[45]
  TGI: > 100 µM
[46]
  TGI: > 100 µM
[47]
  TGI: > 100 µM
[48]
  TGI: > 100 µM
[49]
  TGI: > 100 µM
[50]
  TGI: > 100 µM
[51]
  TGI: > 100 µM
[52]
  TGI: > 100 µM

## C#Cc1c(C)c(/C=C/C(C)=C/C(=O)OC)n(C)c1C
[1]
  TGI: > 100 µM
[2]
  TGI: > 100 µM
[3]
  TGI: > 100 µM
[4]
  TGI: > 100 µM
[5]
  TGI: > 100 µM
[6]
  TGI: > 100 µM
[7]
  TGI: > 100 µM
[8]
  TGI: > 100 µM
[53]
  TGI: > 100 µM
[9]
  TGI: > 100 µM
[10]
  TGI: > 100 µM
[11]
  TGI: > 100 µM
[12]
  TGI: > 100 µM
[13]
  TGI: > 100 µM
[14]
  TGI: 79.4 µM
[15]
  TGI: > 100 µM
[16]
  TGI: > 100 µM
[17]
  TGI: 85.1 µM
[18]
  TGI: > 100 µM
[19]
  TGI: > 100 µM
[20]
  TGI: > 100 µM
[21]
  TGI: > 100 µM
[22]
  TGI: > 100 µM
[23]
  TGI: > 100 µM
[24]
  TGI: > 100 µM
[25]
  TGI: > 100 µM
[54]
  TGI: > 100 µM
[26]
  TGI: > 100 µM
[27]
  TGI: > 100 µM
[28]
  TGI: > 100 µM
[29]
  TGI: > 100 µM
[31]
  TGI: > 100 µM
[32]
  TGI: > 100 µM
[33]
  TGI: > 100 µM
[34]
  TGI: > 100 µM
[35]
  TGI: > 100 µM
[36]
  TGI: > 100 µM
[38]
  TGI: > 100 µM
[39]
  TGI: > 100 µM
[40]
  TGI: > 100 µM
[44]
  TGI: > 100 µM
[45]
  TGI: > 100 µM
[46]
  TGI: > 100 µM
[55]
  TGI: > 100 µM
[48]
  TGI: > 100 µM
[49]
  TGI: > 100 µM
[50]
  TGI: > 100 µM
[56]
  TGI: > 100 µM
[51]
  TGI: > 100 µM
[57]
  TGI: > 100 µM
[52]
  TGI: > 100 µM

## CN1CCc2c1nc(-c1ccc(Cl)cc1)c1c2N(C)CC1
[1]
  TGI: > 100 µM
[2]
  TGI: 62.6 µM
[3]
  TGI: > 100 µM
[4]
  TGI: 55.6 µM
[5]
  TGI: 29.9 µM
[6]
  TGI: 55.2 µM
[7]
  TGI: 21.1 µM
[8]
  TGI: 82.4 µM
[53]
  TGI: 34.3 µM
[9]
  TGI: 32 µM
[10]
  TGI: > 100 µM
[11]
  TGI: 65 µM
[12]
  TGI: 18.9 µM
[13]
  TGI: > 100 µM
[14]
  TGI: 47.4 µM
[16]
  TGI: 27.7 µM
[18]
  TGI: 45.4 µM
[19]
  TGI: > 100 µM
[20]
  TGI: 62.1 µM
[21]
  TGI: 45.7 µM
[22]
  TGI: 72.3 µM
[23]
  TGI: 22.5 µM
[24]
  TGI: 77 µM
[25]
  TGI: 20.4 µM
[54]
  TGI: > 100 µM
[26]
  TGI: > 100 µM
[27]
  TGI: 31.4 µM
[29]
  TGI: 49.9 µM
[30]
  TGI: 40.4 µM
[32]
  TGI: 22.8 µM
[33]
  TGI: > 100 µM
[34]
  TGI: 73.3 µM
[35]
  TGI: > 100 µM
[36]
  TGI: 37.1 µM
[37]
  TGI: 43.9 µM
[38]
  TGI: > 100 µM
[39]
  TGI: 31.1 µM
[40]
  TGI: 32.9 µM
[41]
  TGI: > 100 µM
[43]
  TGI: 26.6 µM
[44]
  TGI: 59.8 µM
[45]
  TGI: 71.1 µM
[46]
  TGI: > 100 µM
[47]
  TGI: 67.7 µM
[55]
  TGI: > 100 µM
[48]
  TGI: > 100 µM
[49]
  TGI: 92.6 µM
[50]
  TGI: 22.5 µM
[56]
  TGI: 32.7 µM
[51]
  TGI: 25.7 µM
[57]
  TGI: 32.5 µM
[52]
  TGI: 32.6 µM

## CC(=O)OCC(=O)[C@@]12OC(C)(C)O[C@@H]1C[C@H]1[C@@H]3CC(C=O)=C4C=C(OCCCl)CC[C@]4(C)[C@@]3(F)[C@@H](O)C[C@@]12C
[1]
  TGI: > 100 µM
[2]
  TGI: 57.9 µM
[3]
  TGI: > 100 µM
[4]
  TGI: > 100 µM
[6]
  TGI: > 100 µM
[7]
  TGI: 34.9 µM
[8]
  TGI: > 100 µM
[53]
  TGI: > 100 µM
[9]
  TGI: > 100 µM
[10]
  TGI: > 100 µM
[11]
  TGI: 29.5 µM
[12]
  TGI: 27.4 µM
[13]
  TGI: > 100 µM
[14]
  TGI: 97.1 µM
[15]
  TGI: 87.6 µM
[16]
  TGI: 51.9 µM
[17]
  TGI: 90.2 µM
[18]
  TGI: 36.8 µM
[19]
  TGI: > 100 µM
[20]
  TGI: > 100 µM
[21]
  TGI: > 100 µM
[22]
  TGI: 38.2 µM
[23]
  TGI: > 100 µM
[25]
  TGI: 61.7 µM
[54]
  TGI: > 100 µM
[26]
  TGI: 70.3 µM
[27]
  TGI: > 100 µM
[28]
  TGI: 64.8 µM
[29]
  TGI: 42.2 µM
[30]
  TGI: 88.4 µM
[31]
  TGI: 92 µM
[32]
  TGI: > 100 µM
[33]
  TGI: > 100 µM
[34]
  TGI: > 100 µM
[35]
  TGI: > 100 µM
[36]
  TGI: > 100 µM
[37]
  TGI: 21.6 µM
[38]
  TGI: > 100 µM
[39]
  TGI: 46.4 µM
[40]
  TGI: 80.9 µM
[41]
  TGI: 58.6 µM
[42]
  TGI: 80.1 µM
[44]
  TGI: > 100 µM
[45]
  TGI: > 100 µM
[46]
  TGI: > 100 µM
[55]
  TGI: 68.8 µM
[58]
  TGI: > 100 µM
[48]
  TGI: > 100 µM
[49]
  TGI: > 100 µM
[50]
  TGI: 48.5 µM
[56]
  TGI: 80.6 µM
[51]
  TGI: > 100 µM
[57]
  TGI: > 100 µM
[52]
  TGI: 35.8 µM
